# Test results: patent US6613718B2, “Aryl ether derivatives and processes for their preparation and herbicidal and desiccant compositions containing them” (Ishihara Sangyo Kaisha, Ltd., priority 2001, dated 2003)
# Experiments:
# Format in all cases: in vivo
# Details in all cases: 14 days after application
# [1] = tested on: barnyardgrass (Echinochloa crus-galli, ECHCG); experiment: Pre-emerge greenhouse herbicide activity screening, phytotoxicity rating
# Outline: (§1)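 Pre-emerge: seeds sown 1 day before spray; acetone solutions, 15–1000 g ai/ha, track sprayer; soil watered after application, then bottom-watered. Post-emerge: plants at 2-3 leaf stage (sown 8-21 days prior), 0.25% v/v non-ionic surfactant added, bottom-watered only. Rated 0-100 at 14 DAA.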
# [2] = tested on: common ragweed (Ambrosia artemisiifolia L., AMBEL); experiment: as above
# Outline: as §1
# [3] = tested on: green foxtail (Setaria viridis, SETVI); experiment: as above
# Outline: as §1
# [4] = tested on: ivyleaf morningglory (Ipomoea hederacea, IPOHE); experiment: as above
# Outline: as §1
# [5] = tested on: johnsongrass (Sorghum halepense, SORHA); experiment: as above
# Outline: as §1
# [6] = tested on: lambsquarters (Chenopodium album, CHEAL); experiment: as above
# Outline: as §1
# [7] = tested on: large crabgrass (Digitaria sanguinalis, DIGSA); experiment: as above
# Outline: as §1
# [8] = tested on: redroot pigweed (Amaranthus retroflexus, AMARE); experiment: as above
# Outline: as §1
# [9] = tested on: sicklepod (Cassia obtusifolia, CASOB); experiment: as above
# Outline: as §1
# [10] = tested on: velvetleaf (Abutilon theophrasti, ABUTH); experiment: as above
# Outline: as §1
# [11] = tested on: field corn (Zea mays L., var. Dekalb 535, CORN); experiment: Pre-emerge greenhouse screening, crop safety (phytotoxicity rating)
# Outline: as §1
# [12] = tested on: soybean (Glycine max L., var. Pella 86, SOY); experiment: as above
# Outline: as §1
# [13] = tested on: upland rice (Oryza sp., var.Tebonnet, RICE); experiment: as above
# Outline: as §1
# [14] = tested on: barnyardgrass (Echinochloa crus-galli, ECHCG); experiment: Post-emerge greenhouse herbicide activity screening, phytotoxicity rating
# Outline: as §1
# [15] = tested on: common ragweed (Ambrosia artemisiifolia L., AMBEL); experiment: as above
# Outline: as §1
# [16] = tested on: green foxtail (Setaria viridis, SETVI); experiment: as above
# Outline: as §1
# [17] = tested on: ivyleaf morningglory (Ipomoea hederacea, IPOHE); experiment: as above
# Outline: as §1
# [18] = tested on: johnsongrass (Sorghum halepense, SORHA); experiment: as above
# Outline: as §1
# [19] = tested on: lambsquarters (Chenopodium album, CHEAL); experiment: as above
# Outline: as §1
# [20] = tested on: large crabgrass (Digitaria sanguinalis, DIGSA); experiment: as above
# Outline: as §1
# [21] = tested on: redroot pigweed (Amaranthus retroflexus, AMARE); experiment: as above
# Outline: as §1
# [22] = tested on: sicklepod (Cassia obtusifolia, CASOB); experiment: as above
# Outline: as §1
# [23] = tested on: velvetleaf (Abutilon theophrasti, ABUTH); experiment: as above
# Outline: as §1
# [24] = tested on: field corn (Zea mays L., var. Dekalb 535, CORN); experiment: Post-emerge greenhouse screening, crop safety / corn selectivity (phytotoxicity rating)
# Outline: as §1
# [25] = tested on: soybean (Glycine max L., var. Pella 86, SOY); experiment: Post-emerge greenhouse screening, crop safety (phytotoxicity rating)
# Outline: as §1
# [26] = tested on: upland rice (Oryza sp., var.Tebonnet, RICE); experiment: as above
# Outline: as §1
compound,measurement,setting,value
COc1ccc(Oc2cc(-n3c(=O)cc(C(F)(F)F)n(C)c3=S)c(F)cc2C#N)cc1 [Compound 1-72],ECHCG phytotoxicity rating (0-100 scale),[1]; 125 g ai/ha,20
same,ECHCG phytotoxicity rating (0-100 scale),[1]; 250 g ai/ha,80
same,AMBEL phytotoxicity rating (0-100 scale),[2]; 125 g ai/ha,95
same,AMBEL phytotoxicity rating (0-100 scale),[2]; 250 g ai/ha,95
same,SETVI phytotoxicity rating (0-100 scale),[3]; 125 g ai/ha,20
same,SETVI phytotoxicity rating (0-100 scale),[3]; 250 g ai/ha,80
same,IPOHE phytotoxicity rating (0-100 scale),[4]; 125 g ai/ha,95
same,IPOHE phytotoxicity rating (0-100 scale),[4]; 250 g ai/ha,100
same,SORHA phytotoxicity rating (0-100 scale),[5]; 125 g ai/ha,60
same,SORHA phytotoxicity rating (0-100 scale),[5]; 250 g ai/ha,60
same,CHEAL phytotoxicity rating (0-100 scale),[6]; 125 g ai/ha,100
same,CHEAL phytotoxicity rating (0-100 scale),[6]; 250 g ai/ha,100
same,DIGSA phytotoxicity rating (0-100 scale),[7]; 125 g ai/ha,95
same,DIGSA phytotoxicity rating (0-100 scale),[7]; 250 g ai/ha,99
same,AMARE phytotoxicity rating (0-100 scale),[8]; 125 g ai/ha,100
same,AMARE phytotoxicity rating (0-100 scale),[8]; 250 g ai/ha,100
same,CASOB phytotoxicity rating (0-100 scale),[9]; 125 g ai/ha,65
same,CASOB phytotoxicity rating (0-100 scale),[9]; 250 g ai/ha,100
same,ABUTH phytotoxicity rating (0-100 scale),[10]; 125 g ai/ha,100
same,ABUTH phytotoxicity rating (0-100 scale),[10]; 250 g ai/ha,100
same,"CORN crop damage, phytotoxicity rating (0-100 scale)",[11]; 125 g ai/ha,5
same,"CORN crop damage, phytotoxicity rating (0-100 scale)",[11]; 250 g ai/ha,8
same,"SOY crop damage, phytotoxicity rating (0-100 scale)",[12]; 125 g ai/ha,0
same,"SOY crop damage, phytotoxicity rating (0-100 scale)",[12]; 250 g ai/ha,40
same,"RICE crop damage, phytotoxicity rating (0-100 scale)",[13]; 125 g ai/ha,0
same,"RICE crop damage, phytotoxicity rating (0-100 scale)",[13]; 250 g ai/ha,0
same,ECHCG phytotoxicity rating (0-100 scale),[14]; 125 g ai/ha,0
same,ECHCG phytotoxicity rating (0-100 scale),[14]; 250 g ai/ha,0
same,AMBEL phytotoxicity rating (0-100 scale),[15]; 125 g ai/ha,0
same,AMBEL phytotoxicity rating (0-100 scale),[15]; 250 g ai/ha,0
same,SETVI phytotoxicity rating (0-100 scale),[16]; 125 g ai/ha,0
same,SETVI phytotoxicity rating (0-100 scale),[16]; 250 g ai/ha,0
same,IPOHE phytotoxicity rating (0-100 scale),[17]; 125 g ai/ha,60
same,IPOHE phytotoxicity rating (0-100 scale),[17]; 250 g ai/ha,60
same,SORHA phytotoxicity rating (0-100 scale),[18]; 125 g ai/ha,0
same,SORHA phytotoxicity rating (0-100 scale),[18]; 250 g ai/ha,0
same,CHEAL phytotoxicity rating (0-100 scale),[19]; 125 g ai/ha,100
same,CHEAL phytotoxicity rating (0-100 scale),[19]; 250 g ai/ha,100
same,DIGSA phytotoxicity rating (0-100 scale),[20]; 125 g ai/ha,0
same,DIGSA phytotoxicity rating (0-100 scale),[20]; 250 g ai/ha,0
same,AMARE phytotoxicity rating (0-100 scale),[21]; 125 g ai/ha,80
same,AMARE phytotoxicity rating (0-100 scale),[21]; 250 g ai/ha,90
same,CASOB phytotoxicity rating (0-100 scale),[22]; 125 g ai/ha,0
same,CASOB phytotoxicity rating (0-100 scale),[22]; 250 g ai/ha,0
same,ABUTH phytotoxicity rating (0-100 scale),[23]; 125 g ai/ha,80
same,ABUTH phytotoxicity rating (0-100 scale),[23]; 250 g ai/ha,90
same,"CORN crop damage, phytotoxicity rating (0-100 scale)",[24]; 125 g ai/ha,0
same,"CORN crop damage, phytotoxicity rating (0-100 scale)",[24]; 250 g ai/ha,0
same,"SOY crop damage, phytotoxicity rating (0-100 scale)",[25]; 125 g ai/ha,0
same,"SOY crop damage, phytotoxicity rating (0-100 scale)",[25]; 250 g ai/ha,0
same,"RICE crop damage, phytotoxicity rating (0-100 scale)",[26]; 125 g ai/ha,0
same,"RICE crop damage, phytotoxicity rating (0-100 scale)",[26]; 250 g ai/ha,0
